Measured values reported in PubChem BioAssay AID330 (DTP/NCI, 2004).
“And” between values parts separate entries of the source, which are not always exact repeats. Equal values may be shown once. Toxic doses and inconclusive results are not listed.

Tested on: P388 leukemia ip, CD2F1 mice, survival T/C
Assay: NCI In Vivo Anticancer Drug Screen. Data for tumor model P388 Leukemia (intraperitoneal) in CD2F1 (CDF1) mice
Settings: endpoint: median survival time, higher = longer survival
Outline: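 Mice carrying the transplanted tumor received test compound or vehicle. Survival was recorded in each group, and the value is the treated-group measurement divided by that of the vehicle-treated control group.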

[1] = dose: 100.0 mg/kg/injection, schedule: Q04DX002 (ip), vehicle: saline
[2] = dose: 200.0 mg/kg/injection, schedule: Q04DX002 (ip), vehicle: saline
[3] = dose: 200.0 mg/kg/injection, schedule: Q01DX001 (ip), vehicle: saline with Tween-80
[4] = dose: 50.0 mg/kg/injection, schedule: Q01DX009 (ip), vehicle: saline with Tween-80
[5] = dose: 100.0 mg/kg/injection, schedule: Q01DX009 (ip), vehicle: saline with Tween-80
[6] = dose: 60.0 mg/kg/injection, schedule: Q01DX005 (ip), vehicle: saline with Tween-80
[7] = dose: 120.0 mg/kg/injection, schedule: Q01DX005 (ip), vehicle: saline with Tween-80
[8] = dose: 240.0 mg/kg/injection, schedule: Q01DX005 (ip), vehicle: saline with Tween-80
[9] = dose: 50.0 mg/kg/injection, schedule: Q01DX005 (ip), vehicle: Klucel (hydroxypropylcellulose) (HPC)
[10] = dose: 100.0 mg/kg/injection, schedule: Q01DX005 (ip), vehicle: Klucel (hydroxypropylcellulose) (HPC)
[11] = dose: 200.0 mg/kg/injection, schedule: Q01DX005 (ip), vehicle: Klucel (hydroxypropylcellulose) (HPC)
[12] = dose: 50.0 mg/kg/injection, schedule: Q01DX009 (ip), vehicle: Klucel (hydroxypropylcellulose) (HPC)
[13] = dose: 100.0 mg/kg/injection, schedule: Q01DX009 (ip), vehicle: Klucel (hydroxypropylcellulose) (HPC)
[14] = dose: 200.0 mg/kg/injection, schedule: Q01DX009 (ip), vehicle: Klucel (hydroxypropylcellulose) (HPC)
[15] = dose: 50.0 mg/kg/injection, schedule: Q01DX005 (ip), vehicle: saline with Tween-80
[16] = dose: 200.0 mg/kg/injection, schedule: Q01DX009 (ip), vehicle: saline with Tween-80

What does the source list for `O=C(COP(=O)(OCC(=O)Oc1ccc([N+](=O)[O-])cc1)Oc1ccc([N+](=O)[O-])cc1)Oc1ccc([N+](=O)[O-])cc1`?
T/C (dose: 25.0 mg/kg/injection, schedule: Q01DX009 (ip), vehicle: other): 102 % of control; T/C (dose: 50.0 mg/kg/injection, schedule: Q01DX009 (ip), vehicle: other): 98 % of control; T/C (dose: 100.0 mg/kg/injection, schedule: Q01DX009 (ip), vehicle: other): 93 % of control; T/C (dose: 200.0 mg/kg/injection, schedule: Q01DX009 (ip), vehicle: other): 91 % of control; T/C (dose: 400.0 mg/kg/injection, schedule: Q01DX009 (ip), vehicle: other): 108 % of control

For `COc1ccc2c(c1)N(C(=O)CNC(C)(C)C)c1ccccc1S2`, which T/C [1] is on record?
Its T/C is 117 % of control.

What about the T/C [2] of the same molecule?
The T/C was 99 % of control.

How did the T/C (dose: 50.0 mg/kg/injection, schedule: Q01DX001 (ip), vehicle: saline with Tween-80) turn out when `CSc1nc(SC)c2c(CNC(C)=O)cn(Cc3ccccc3)c2n1` was run?
The T/C was 87 % of control.

What about the T/C [3] of the same molecule?
The T/C was 86 % of control and 87 % of control.

Which T/C (dose: 25.0 mg/kg/injection, schedule: Q01DX009 (ip), vehicle: distilled water + Tween-80) does the source give for `Cn1c2ccccc2c2ccc3c(c21)C(=O)C=CC3=O` here?
Its T/C is 120 % of control.

What does the source list for `Clc1cc2nc[nH]c2cc1Cl`?
T/C [4]: 101 % of control; T/C [5]: 90 % of control

Which results are given for `CCOc1c(N=Nc2ccc([N+](=O)[O-])cc2)c(C)nn1C(=S)S`?
T/C (dose: 60.0 mg/kg/injection, schedule: Q01DX005 (ip), vehicle: Klucel (hydroxypropylcellulose) (HPC)): 100 % of control; T/C (dose: 120.0 mg/kg/injection, schedule: Q01DX005 (ip), vehicle: Klucel (hydroxypropylcellulose) (HPC)): 95 % of control; T/C (dose: 240.0 mg/kg/injection, schedule: Q01DX005 (ip), vehicle: Klucel (hydroxypropylcellulose) (HPC)): 100 % of control

How did the T/C (dose: 100.0 mg/kg/injection, schedule: Q01DX001 (ip), vehicle: saline with Tween-80) turn out when `C=C1C(=O)O[C@H]2CCC[C@@]12C` was run?
Its T/C is 103 % of control.

What about the T/C [3] of the same molecule?
The T/C was 106 % of control.

And the T/C (dose: 400.0 mg/kg/injection, schedule: Q01DX001 (ip), vehicle: saline with Tween-80)?
Its T/C is 113 % of control.

`COC(=O)C12CN(C)CC(C(=O)OC)(C1=O)C(c1ccccc1)OC2c1ccccc1` (configuration not stated) was tested. Which T/C [6] did it give?
The T/C was 107 % of control and 98 % of control.

And the T/C [7]?
Its T/C is 99 % of control.

And the T/C [8]?
The T/C was 98 % of control and 90 % of control.

`O=C(O)c1cccc2c1-c1ccccc1C2=O` was tested. Which T/C (dose: 12.5 mg/kg/injection, schedule: Q01DX005 (ip), vehicle: Klucel (hydroxypropylcellulose) (HPC)) did it give?
Its T/C is 94 % of control.

And the T/C (dose: 25.0 mg/kg/injection, schedule: Q01DX005 (ip), vehicle: Klucel (hydroxypropylcellulose) (HPC))?
The T/C was 99 % of control.

And the T/C [9]?
Its T/C is 97 % of control.

And the T/C [10]?
The T/C was 100 % of control.

And the T/C [11]?
Its T/C is 103 % of control.

How did the T/C [6] turn out when `CC(C)=CN=Cc1nc(Cc2ccccc2)oc1O` was run?
The T/C was 105 % of control.

What about the T/C [7] of the same molecule?
Its T/C is 96 % of control.

What about the T/C [8] of the same molecule?
Its T/C is 94 % of control.

`CCCCCCC(O)/C=C/c1ccc(N(C)C)cc1` (configuration not stated) was tested. Which T/C [12] did it give?
Its T/C is 103 % of control.

What about the T/C [13] of the same molecule?
The T/C was 99 % of control.

And the T/C [14]?
Its T/C is 102 % of control.

Which T/C (dose: 100.0 mg/kg/injection, schedule: Q04DX002 (ip), vehicle: saline with Tween-80) does the source give for `NCCn1[nH]c(=O)c2ccncc2c1=O` here?
Its T/C is 94 % of control.

And the T/C (dose: 200.0 mg/kg/injection, schedule: Q04DX002 (ip), vehicle: saline with Tween-80)?
The T/C was 92 % of control.

What about the T/C (dose: 400.0 mg/kg/injection, schedule: Q04DX002 (ip), vehicle: saline with Tween-80) of the same molecule?
Its T/C is 92 % of control.

With `COc1cc2c(cc1[N+](=O)[O-])C(=O)CCCC2` as the molecule, how does the T/C (dose: 100.0 mg/kg/injection, schedule: Q01DX009 (sc), vehicle: olive oil, sesame oil, peanut oil) read?
Its T/C is 104 % of control.

And the T/C (dose: 200.0 mg/kg/injection, schedule: Q01DX009 (sc), vehicle: olive oil, sesame oil, peanut oil)?
The T/C was 100 % of control.

What about the T/C (dose: 400.0 mg/kg/injection, schedule: Q01DX009 (sc), vehicle: olive oil, sesame oil, peanut oil) of the same molecule?
Its T/C is 107 % of control.

Which results are given for `CCOC(=O)C1CSC(c2c(COP(=O)(O)O)cnc(C)c2O)N1` (configuration not stated)?
T/C [15]: 96 % of control; T/C (dose: 100.0 mg/kg/injection, schedule: Q01DX005 (ip), vehicle: saline with Tween-80): 100 % of control; T/C (dose: 200.0 mg/kg/injection, schedule: Q01DX005 (ip), vehicle: saline with Tween-80): 94 % of control

Which results are given for `O=C1C(N=Nc2ccc([N+](=O)[O-])cc2)Sc2nc3ccccc3n21` (configuration not stated)?
T/C (dose: 7.5 mg/kg/injection, schedule: Q01DX005 (ip), vehicle: Klucel (hydroxypropylcellulose) (HPC)): 99 % of control; T/C (dose: 15.0 mg/kg/injection, schedule: Q01DX005 (ip), vehicle: Klucel (hydroxypropylcellulose) (HPC)): 92 % of control; T/C (dose: 30.0 mg/kg/injection, schedule: Q01DX005 (ip), vehicle: Klucel (hydroxypropylcellulose) (HPC)): 90 % of control

Which results are given for `O=C1NC(=O)C(c2ccccc2)(c2ccc(O)cc2)N1` (configuration not stated)?
T/C (dose: 100.0 mg/kg/injection, schedule: Q04DX003 (ip), vehicle: saline with Tween-80): 115 % of control; T/C (dose: 200.0 mg/kg/injection, schedule: Q04DX003 (ip), vehicle: saline with Tween-80): 110 % of control; T/C (dose: 400.0 mg/kg/injection, schedule: Q04DX003 (ip), vehicle: saline with Tween-80): 115 % of control

`CSC1=NC(=S)C(C)(C)NN1` was tested. Which T/C (dose: 100.0 mg/kg/injection, schedule: Q04DX002 (ip), vehicle: Klucel (hydroxypropylcellulose) (HPC)) did it give?
Its T/C is 104 % of control.

With `C=C(C)[C@H]1C[C@@H]2O[C@]2(C)[C@@H](O)C1` as the molecule, how does the T/C [1] read?
The T/C was 94 % of control.

What about the T/C [2] of the same molecule?
The T/C was 102 % of control.

What about the T/C (dose: 400.0 mg/kg/injection, schedule: Q04DX002 (ip), vehicle: saline) of the same molecule?
The T/C was 96 % of control.

For `CC(=N/NC(=S)NCCN1CCCC1)/C(C)=N\NC(=S)NCCN1CCCC1`, which T/C (dose: 6.25 mg/kg/injection, schedule: Q04DX003 (ip), vehicle: saline with Tween-80) is on record?
Its T/C is 117 % of control.

What about the T/C (dose: 12.5 mg/kg/injection, schedule: Q04DX003 (ip), vehicle: saline with Tween-80) of the same molecule?
Its T/C is 98 % of control.

And the T/C (dose: 25.0 mg/kg/injection, schedule: Q04DX003 (ip), vehicle: saline with Tween-80)?
Its T/C is 100 % of control.

With `O=C(Nc1ccc(Nc2ccc3c(c2)C(=O)c2ccccc2C3=O)c2c1C(=O)c1ccccc1C2=O)c1ccccc1` as the molecule, how does the T/C [9] read?
Its T/C is 92 % of control.

And the T/C [10]?
The T/C was 91 % of control.

And the T/C [11]?
The T/C was 88 % of control.

`CCOC(=O)c1ccc(NC(=NC(C)(C)C)C(C)C)cc1` was tested. Which T/C [4] did it give?
The T/C was 96 % of control.

What about the T/C [5] of the same molecule?
The T/C was 101 % of control.

And the T/C [16]?
Its T/C is 91 % of control.

What does the source list for `OC(CCCCl)CC(O)(C(F)(F)F)C(F)(F)F` (configuration not stated)?
T/C [4]: 110 % of control; T/C [5]: 110 % of control; T/C [16]: 110 % of control

Which results are given for `C=CCOc1ccccc1N/N=C(\Cl)C(=O)OC`?
T/C (dose: 12.5 mg/kg/injection, schedule: Q01DX005 (ip), vehicle: saline with Tween-80): 102 % of control; T/C (dose: 25.0 mg/kg/injection, schedule: Q01DX005 (ip), vehicle: saline with Tween-80): 108 % of control; T/C [15]: 109 % of control and 114 % of control

Which results are given for `CC(=O)CC1CC2(CCC1=O)OCCO2` (configuration not stated)?
T/C (dose: 100.0 mg/kg/injection, schedule: Q01DX009 (ip), vehicle: saline sonified): 100 % of control; T/C (dose: 200.0 mg/kg/injection, schedule: Q01DX009 (ip), vehicle: saline sonified): 100 % of control; T/C (dose: 400.0 mg/kg/injection, schedule: Q01DX009 (ip), vehicle: saline sonified): 100 % of control

Which results are given for `c1cc2nc(N3CCNCC3)nc(N3CCOCC3)c2s1`?
T/C (dose: 50.0 mg/kg/injection, schedule: Q01DX009 (ip), vehicle: saline): 94 % of control; T/C (dose: 100.0 mg/kg/injection, schedule: Q01DX009 (ip), vehicle: saline): 97 % of control; T/C (dose: 200.0 mg/kg/injection, schedule: Q01DX009 (ip), vehicle: saline): 93 % of control

Which T/C (dose: 100.0 mg/kg/injection, schedule: Q04DX003 (ip), vehicle: Klucel (hydroxypropylcellulose) (HPC)) does the source give for `O=[N+]([O-])c1ccccc1-c1ccc2c(O)c(Cl)c(Cl)c(O)c2n1` here?
The T/C was 104 % of control.

For `CNC(=O)OCc1cnc2ccc(OC)cc2c1COC(=O)NC`, which T/C [9] is on record?
The T/C was 92 % of control.

And the T/C [10]?
Its T/C is 99 % of control.

And the T/C [11]?
Its T/C is 102 % of control.

What does the source list for `COC(=O)NCP(=S)(CNC(=O)OC)CNC(=O)OC`?
T/C [12]: 105 % of control; T/C [13]: 96 % of control; T/C [14]: 95 % of control

Which T/C (dose: 60.0 mg/kg/injection, schedule: Q01DX005 (ip), vehicle: saline) does the source give for `CC(=O)Cc1cc(-c2cc(CC(C)=O)on2)no1` here?
Its T/C is 103 % of control.

And the T/C (dose: 120.0 mg/kg/injection, schedule: Q01DX005 (ip), vehicle: saline)?
Its T/C is 99 % of control.

What about the T/C (dose: 240.0 mg/kg/injection, schedule: Q01DX005 (ip), vehicle: saline) of the same molecule?
Its T/C is 100 % of control.
